Results reported in patent US20230151014A1 (Repare Therapeutics Inc., priority 2020, published 2023).

Target: T1, recombinant human Myt1 (Homo sapiens, UniProt Q99640)
T1 construct: full length PKMYT1 recombinant human protein expressed in insect cells
T1 sequence (Q99640 1-499): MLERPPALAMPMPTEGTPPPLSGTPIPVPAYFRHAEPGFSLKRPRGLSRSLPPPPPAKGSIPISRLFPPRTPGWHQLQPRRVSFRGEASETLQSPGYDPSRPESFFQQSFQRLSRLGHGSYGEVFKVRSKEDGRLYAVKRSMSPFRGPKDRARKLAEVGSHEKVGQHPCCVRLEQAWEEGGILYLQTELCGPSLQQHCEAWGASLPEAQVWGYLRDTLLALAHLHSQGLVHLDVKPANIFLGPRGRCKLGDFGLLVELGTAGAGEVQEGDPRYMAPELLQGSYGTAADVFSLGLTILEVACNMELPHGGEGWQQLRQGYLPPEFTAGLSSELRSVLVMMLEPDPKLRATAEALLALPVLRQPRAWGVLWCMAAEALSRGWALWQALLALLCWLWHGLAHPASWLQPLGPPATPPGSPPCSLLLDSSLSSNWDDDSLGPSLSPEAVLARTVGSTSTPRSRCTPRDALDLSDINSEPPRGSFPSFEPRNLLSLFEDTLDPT
Test: Myt1 enzymatic assay (ADP-Glo kinase assay, IC50 and % max inhibition)
Assay type: biochemical
Settings: recombinant human Myt1 18 nM, ATP 10 μM
Method: Detection of Myt1 kinase activity utilized a recombinant human Myt1 kinase assay measuring the hydrolysis of ATP using a commercially available ADP-Glo Assay (ADP-Glo™ Kinase Assay from Promega, 10 000 assays, #V9102). […] After this, 5 μL of compounds (diluted in reaction buffer to 0.5% DMSO) was added to the microplate and the plate was spun briefly and incubated at 22° C. for 15 minutes. Ultra-Pure Adenosine Triphosphate (ATP) solution (ADP-Glo kit from Promega) was diluted in reaction buffer and 5 μL was added to the microplate, spun down briefly and incubated for 60 minutes at 30° C. […] After the 60-minute incubation, 15 μL of ADP-Glo reagent was added and the plate was spun briefly and sealed and incubated in the dark for 40 minutes at 22° C. […] Luminescence was read using the Envision (250 ms integration). The IC50 and the % max inhibition were calculated for each inhibitor compound tested.

IC50 [nM] | Compound
168 | Cc1ccc(O)c(C)c1-n1c(N)c(C(N)=O)c2nc(C#CCN3CCOCC3)cnc21 [Compound 217]
27 | Cc1ccc(O)c(C)c1-n1c(N)c(C(N)=O)c2nc(OC3CC3)cnc21 [Compound 260, 6-amino-2-(cyclopropoxy)-5-(3-hydroxy-2,6-dimethyl-phenyl)pyrrolo[2,3-b]pyrazine-7-carboxamide]
250 | Cc1ccc(O)c(C)c1-n1c(N)c(C(N)=O)c2nc(C#CC3CCNC3)cnc21 (stereo not drawn) [Compound 279]
1240 | Cc1ccc(O)cc1-n1c(N)c(C(N)=O)c2nc(C3=CCCC3)ccc21 [Compound 6, 2-amino-5-(cyclopenten-1-yl)-1-(5-hydroxy-2-methyl-phenyl)pyrrolo[3,2-b]pyridine-3-carboxamide]
13 | Cc1c(O)ccc(Br)c1-n1c(N)c(C(N)=O)c2cc(Cl)cnc21 [Compound 301]
< 10 | Cc1ccc(O)c(C)c1-n1c(N)c(C(N)=O)c2nc(-c3ccnc(C(F)(F)F)c3)cnc21 [Compound 35, 6-amino-5-(3-hydroxy-2,6-dimethyl-phenyl)-2-[2-(trifluoromethyl)-4-pyridyl]pyrrolo[2,3-b]pyrazine-7-carboxamide]
< 10 | C=Cc1cnc2c(n1)c(C(N)=O)c(N)n2-c1c(C)ccc(O)c1C [Compound 259]
20 | Cc1ccc(O)c(C)c1-n1c(N)c(C(N)=O)c2nc(-c3nc4ccccc4o3)cnc21 [Compound 249]
10 | Cc1ccc(O)c(C)c1-n1c(N)c(C(N)=O)c2nc(-c3nc4ccccc4n3C)cnc21 [Compound 254]
50 | Cc1ccc(O)c(C)c1-n1c(N)c(C(N)=O)c2ncc(C#Cc3ccccn3)nc21 [Compound 227]
6350 | Cc1ccc(O)cc1-n1c(N)c(C(N)=O)c2ncc(OCCN3CCOCC3)nc21 [Compound 154]
43 | C=Cc1cnc2c(C(N)=O)c(N)n(-c3c(C)ccc(O)c3C)c2n1 [Compound 257, 6-amino-5-(3-hydroxy-2,6-dimethyl-phenyl)-3-vinyl-pyrrolo[2,3-b]pyrazine-7-carboxamide]
< 10 | Cc1ccc(O)c(C)c1-n1c(N)c(C(N)=O)c2cc(C3=CCOCC3)cnc21 [Compound 304]
596 | Cc1ccc(O)cc1-n1c(N)c(C(N)=O)c2ncc(CCc3cccnc3)nc21 [Compound 162, 6-amino-5-(5-hydroxy-2-methyl-phenyl)-3-[2-(3-pyridyl)ethyl]pyrrolo[2,3-b]pyrazine-7-carboxamide]
12 | CC(=O)c1c(N)n(-c2c(C)ccc(O)c2C)c2ncc(-c3cnccn3)nc12 [Compound 97, 1-[6-amino-5-(3-hydroxy-2,6-dimethyl-phenyl)-2-pyrazin-2-yl-pyrrolo[2,3-b]pyrazin-7-yl]ethenone]
32 | Cc1ccc(O)c(C)c1-n1c(N)c(C(N)=O)c2nc(C#CC(=O)Nc3ccc(F)cc3)cnc21 [Compound 283]
< 10 | Cc1ccc(O)c(C)c1-n1c(N)c(C(N)=O)c2cc(I)cnc21 [Compound 319]
< 10 | Cc1ccc(O)c(C)c1-n1c(N)c(C(N)=O)c2nc(-c3ccncn3)cnc21 [Compound 57]
3550 | Cc1ccc(O)cc1-n1c(N)c(C(N)=O)c2ncc(OCc3cccnc3)nc21 [Compound 153, 6-amino-5-(5-hydroxy-2-methyl-phenyl)-3-(3-pyridylmethoxy)pyrrolo[2,3-b]pyrazine-7-carboxamide]
< 10 | Cc1ccc(O)c(C)c1-n1c(N)c(C(N)=O)c2nc(C3CC3)c(C)nc21 [Compound 100]

IC50 [nM] | Compound
< 10 | Cc1ccc(O)c(C)c1-n1c(N)c(C(N)=O)c2nc(-c3ccns3)cnc21 [Compound 41]
34 | Cc1ccc(O)c(C)c1-n1c(N)c(C(N)=O)c2ncc(C#CC3CCOCC3)nc21 [Compound 225]
11 | Cc1ccc(O)c(C)c1-n1c(N)c(C(N)=O)c2ncc(C#CC3(C)COC3)nc21 [Compound 232]
< 10 | Cc1ccc(O)c(C)c1-n1c(N)c(C(N)=O)c2nc(-c3ccc(Cl)cn3)cnc21 [Compound 49]
16 | Cc1ccc(O)c(C)c1-n1c(N)c(C(N)=O)c2ncc(C#CC3(O)CCOC3)nc21 (stereo not drawn) [Compound 236]
< 10 | Cc1ccc(O)c(C)c1-n1c(N)c(C(N)=O)c2nc(C3CCCCC3)cnc21 [Compound 83]
17 | Cc1ccc(O)c(C)c1-n1c(N)c(C(N)=O)c2nc(-c3cc4ccccc4n3C)cnc21 [Compound 247]
13 | Cc1ccc(O)c(C)c1-n1c(N)c(C(N)=O)c2ncc(C#CC3CCCCO3)nc21 (stereo not drawn) [Compound 224]
13 | Cc1ccc(O)c(C)c1-n1c(N)c(C(N)=O)c2ncc(C#CC3(C)CCCO3)nc21 (stereo not drawn) [Compound 235]
2750 | Cc1ccc(O)cc1-n1c(N)c(C(N)=O)c2ncc(OCc3ccccc3)nc21 [Compound 151]
< 10 | Cc1ccc(O)c(C)c1-n1c(N)c(C(N)=O)c2nc3c(nc21)CCCC3 [Compound 262]
527 | Cc1ccc(O)cc1-n1c(N)c(C(N)=O)c2nc(CCCC(C)(C)O)ccc21 [Compound 19]
252 | Cc1ccc(O)cc1-n1c(N)c(C(N)=O)c2nc(-c3cc[nH]n3)ccc21 [Compound 11]
361 | Cc1cnc2c(C(N)=O)c(N)n(-c3cc(O)ccc3C)c2n1 [Compound 167]
29 | Cc1ccc(O)cc1-n1c(N)c(C(N)=O)c2nc(-c3nccs3)ccc21 [Compound 24]
84 | CCN(CC)C(=O)c1cnc2c(n1)c(C(N)=O)c(N)n2-c1c(C)ccc(O)c1C [Compound 246]
24 | Cc1ccc(O)c(C)c1-n1c(N)c(C(N)=O)c2nc(N3CC4(COC4)C3)cnc21 [Compound 253]
28 | Cc1ccc(O)c(C)c1-n1cc(C(N)=O)c2nc(C)c(C)nc21 [Compound 209, 5-(3-hydroxy-2,6-dimethyl-phenyl)-2,3-dimethyl-pyrrolo[2,3-b]pyrazine-7-carboxamide]
< 10 | Cc1ccc(O)c(C)c1-n1c(N)c(C(N)=O)c2nc(-c3nc(C)c(C)s3)cnc21 [Compound 32]
< 10 | Cc1ccc(O)c(C)c1-n1c(N)c(C(N)=O)c2nc(-c3c[nH]cn3)cnc21 [Compound 65]

IC50 [nM] | Compound
10 | Cc1ccc(O)c(C)c1-n1c(N)c(C(N)=O)c2nc(N3CCC(C)(O)CC3)cnc21 [Compound 52]
< 10 | Cc1ccc(O)c(Cl)c1-n1c(N)c(C(N)=O)c2nc(C3CC3)cnc21 [Compound 104]
< 10 | Cc1ccc(O)c(C)c1-n1c(N)c(C(N)=O)c2nc(-c3ccnnc3)cnc21 [Compound 250]
109 | Cc1ccc(O)c(C)c1-n1c(N)c(C(N)=O)c2nc(-c3nc(C)c(C)o3)cnc21 [Compound 255]
< 10 | Cc1ccc(O)c(C)c1-n1c(N)c(C(N)=O)c2nc(-c3cnccn3)cnc21 [Compound 38]
9060 | Cc1ccc(O)cc1-n1c(N)c(C(N)=O)c2nc(C#CCC(C)(C)O)ccc21 [Compound 17]
< 10 | Cc1ccc(O)c(C)c1-n1c(N)c(C(N)=O)c2cc(C#N)cnc21 [Compound 312]
< 10 | Cc1ccc(O)c(C)c1-n1c(N)c(C(N)=O)c2nc(N3CCCC3)cnc21 [Compound 85]
16 | Cc1ccc(O)c(C)c1-n1c(N)c(C(N)=O)c2c(C)c(C)cnc21 [Compound 125]
< 10 | Cc1ccc(O)c(C)c1-n1c(N)c(C(N)=O)c2nc(C3(C(F)(F)F)CC3)cnc21 [Compound 198, 6-amino-5-(3-hydroxy-2,6-dimethyl-phenyl)-2-[1-(trifluoromethyl)cyclopropyl]pyrrolo[2,3-b]pyrazine-7-carboxamide]
22 | Cc1ccc(O)c(C)c1-n1c(N)c(C(N)=O)c2ncc(C#CCN3CCOCC3)nc21 [Compound 218]
24 | Cc1ccc(O)c(C)c1-n1c(N)c(C(N)=O)c2nc(C#CCN3CCOCC3)c(C#CCN3CCOCC3)nc21 [Compound 215]
< 10 | Cc1ccc(O)c(Br)c1-n1c(N)c(C(N)=O)c2cc(Cl)cnc21 [Compound 289]
238 | Cc1ccc(O)cc1-n1c(N)c(C(N)=O)c2nc(OCc3cccnc3)cnc21 [Compound 284]
953 | Cc1ccc(O)cc1-n1c(N)c(C(N)=O)c2ncc(C#Cc3ccccn3)nc21 [Compound 158]
164 | Cc1ccc(O)cc1-n1c(N)c(C(N)=O)c2nc(-c3ccc(N)nc3)ccc21 [Compound 8]
< 10 | Cc1ccc(O)c(C)c1-n1c(N)c(C(N)=O)c2nc(N3CCC(C(=O)N(C)C)CC3)cnc21 [Compound 80]
80 | Cc1ccc(O)c(C)c1-n1c(N)c(C(N)=O)c2nc(CCC3CCNC3)cnc21 (stereo not drawn) [Compound 280]
< 10 | Cc1ccc(O)c(C)c1-n1c(N)c(C(N)=O)c2nc(-c3nc4ccccc4s3)cnc21 [Compound 248]
52 | Cc1ccc(O)c(C)c1-n1c(N)c(C(N)=O)c2ncc(C#C[C@H](C)O)nc21 [Compound 229]
